Experimental findings from patent publication US20080292576A1, “METHOD FOR IDENTIFYING HAIR CONDITIONER-RESISTANT HAIR-BINDING PEPTIDES AND HAIR BENEFIT AGENTS THEREFROM” (E.I. du Pont de Nemours and Co., priority 2005, published 2008) are described below.

Data set [1] can be described thus: ELISA determination of specificity, binding to hair. Also on record: species or system human. The note with it: for binding to hair (in words): ELISA of Table 2; for Hair A450 ± SEM: ELISA, 20 μM fluorescein-labeled peptide in binding buffer, 30 min at 37° C., absorbance at 450 nm. The text has this:
(§1) The hair-binding peptides HCP.1 (SEQ ID NO:1) and HCP.6 (SEQ ID NO:4) were used in this Example along with a control peptide, an unrelated skin-binding peptide, Skin 1 (Huang et al., U.S. Patent Application Publication No. 2005/0050656), given as SEQ ID NO:8. All of the peptides were synthesized with an added lysine residue, derivatized with the fluorescent tag 5-carboxyfluorescein-aminohexyl amidite (5-FAM), at the C-terminus by SynPep (Dublin, Calif.). The sequences of the derivatized hair binding peptides HCP.1(5-FAM) and HCP.6(5-FAM) are given as SEQ ID NOs:9 and 10, respectively. The sequence of the derivatized skin-binding peptide control Skin 1(5-FAM) is given as SEQ ID NO:11.
(§2) For the assay, a unique hair or pig skin-bottom 96-well apparatus was created by applying one layer of Parafilm® under the top 96-well block of a Minifold I Dot-Blot System (Schleicher & Schuell, Inc., Keene, N.H.), adding hair or a layer of hairless pig skin on top of the Parafilm® cover, and then tightening the apparatus. The hair or skin sample in the 96-well apparatus was first blocked with SuperBlock® Blocking Buffer (Tris-buffered; Pierce Biotechnology, Rockford, Ill.) by incubating the sample for 1 h at room temperature. Then, the hair or skin sample was washed six times with wash buffer (TBST-0.5%). The fluorescein-labeled peptide, at a concentration of 20 μM in 1.0 mL of binding buffer (TBST-0.5% containing 1 mg/mL BSA), was added to each well and incubated for 30 min at 37° C. The hair or skin sample was washed six times with TBST-0.5%, and then, 1.0 mL of anti-fluorescein/Mouse IgG (Molecular Probes, Inc., Eugene, Oreg.) solution (1:1000 dilution in blocking buffer) was added per well. The samples were incubated for 1 h at room temperature and then washed six times with wash buffer. Then, 1.0 mL of Anti-Mouse IgG-HRP conjugate (Pierce Biotechnology) solution (1:1000 dilution in blocking buffer) was added to each well and the samples were incubated for 1 h at room temperature. The samples were washed six times with wash buffer, and 300 μL of TMB Substrate (Pierce Biotechnology) was added to each well. The samples were incubated for 10 min at room temperature and then a 100 μL sample from each well was taken and added to a well in a new microtiter plate. Then, 100 μL of Stop solution (2 M sulfuric acid solution) was added to each well and the absorbance of each sample was measured at a wavelength of 450 nm.

Data set [2] in a line: ELISA determination of specificity, binding to pig skin. The note with it: for binding to skin (in words): ELISA of Table 2, pig skin; for Skin A450 ± SEM: ELISA, 20 μM fluorescein-labeled peptide in binding buffer, 30 min at 37° C., pig skin, absorbance at 450 nm.
Source text: as §1, §2

Data set [3] can be described thus: ELISA binding to hair bundles from a hair conditioner matrix or buffer. Also on record: species or system human. The note with it: for difference in hair-binding activity from a hair conditioner matrix compared to buffer: ELISA of Table 3; for Buffer A450 ± SEM / 100% Conditioner A450 ± SEM: hair bundles, 30 min at 37° C.; for Buffer A450 ± SEM: 20 μM peptide in buffer; for 100% Conditioner A450 ± SEM: 20 μM peptide in undiluted Dove Extra Volume Conditioner. On the procedure: The same ELISA method described in Example 4 was used, except that the hair samples were assembled into bundles, instead of being cast as wells in a 96-well apparatus. To prepare the hair sample bundles, 100 pieces of 1 cm-long hairs were assembled together and taped at one end with narrow tape (3 M, St. Paul, Minn.). The hair was prepared as described in Examples 1-3 and placed into a flat-bottom block (Qiagen Science, Germantown, Md.; Cat. No. 19579).
The HCP.1(5-FAM) and HCP.6(5-FAM) hair-binding peptides, as described in Example 4, were mixed separately with undiluted hair conditioner (Dove® Extra Volume Conditioner; Unilever) using a high-shear mixer (Silverson, Model L4R7A; Silverson Machines, East Longmeadow, Mass.) for 6 min to give a final peptide concentration of 20 μM. The hair samples were blocked as described in Example 4 and then incubated in the peptide-conditioner mixtures for 30 min at 37° C. The hair samples were then washed and treated as described in Example 4. After the final wash step after the addition of the Anti-Mouse IgG-HRP conjugate, the hair bundles were transferred to new tubes and the TMB substrate was added. The hair bundles were incubated for 10 min at room temperature, and then a 100 μL sample from each tube was taken and added to a well in a microtiter plate. Then, 100 μL of Stop solution (2 M sulfuric acid solution) was added to each well and the absorbance of each sample was measured at a wavelength of 450 nm.
The binding of the HCP.1(5-FAM) and HCP.6(5-FAM) hair-binding peptides to hair from buffer was determined using the same procedure. In addition, controls were run using the same procedure, without any hair-binding peptide present, in both hair conditioner and buffer.

Data set [4] in a line: Shampoo resistance of hair binding (ELISA after 30% shampoo wash). Also on record: species or system human. The following applies: wash with 30% shampoo (Pantene Pro-V, Sheer Volume). On the procedure: Experiments were also done to determine if the hair conditioner-resistant hair-binding peptides were also shampoo resistant. For these experiments, the hair, after contacting with the hair-binding peptide (HCP.1 or HCP.6), was washed with a solution containing 30% shampoo (Pantene Pro-V, Sheer Volume, Proctor & Gamble, Cincinnati, Ohio) and the binding activity was determined using the ELISA method described above and compared to that obtained with buffer washes.

Data set [5] is described as follows: Stability of hair-binding activity in a hair conditioner matrix (ELISA over time). Also on record: species or system human. The note with it: 21 days in hair conditioner matrix, room temperature; FIGS. 1 and 2. On the procedure:
Separate mixtures of the hair-binding peptides HCP.1 and HCP.6 in hair conditioner were prepared as described in Example 5. For purposes of comparison, solutions of the hair-binding peptides in buffer were used. All the solutions were stored at room temperature and the binding activity of the peptides was determined using the ELISA procedure described in Example 5 using samples taken at different periods of time.

Where no end group is shown, it is not given here. 5‑FAM = 5-carboxyfluorescein-aminohexyl amidite fluorescent tag

As to “THSTHNHGSPRHTNADAGNP (Hair conditioner-resistant hair-binding peptide) [HCP.1]”, the “binding to hair (in words)” value in data set [1] is given as “bind to hair”. Further, the “binding to skin (in words)” value in data set [2] is “not to skin”. Besides, the “difference in hair-binding activity from a hair conditioner matrix compared to buffer” value in data set [3] is recorded as “no significant difference”. The “binding activity after shampoo wash compared to buffer washes” value in data set [4] is given as “almost total loss of binding activity”. In addition, in data set [5], the “hair-binding activity after storage in the hair conditioner matrix” value is reported as “no significant decrease”.

On to “HCP.6(5-FAM): HCP.6 with an added C-terminal lysine derivatized with fluorescent tag 5-carboxyfluorescein-aminohexyl amidite (STLHKYKSQDPTPHHK(5‑FAM))”, for which, in data set [1], the “Hair A450 ± SEM” value worked out at 0.581 ± 0.053. Also, in data set [2], the “Skin A450 ± SEM” value is on record as −0.009 ± 0.023. In data set [3], the “Buffer A450 ± SEM” value was found to be 1.420 ± 0.062 and the “100% Conditioner A450 ± SEM” value worked out at 1.217 ± 0.075.

Take “Skin 1: control peptide, an unrelated skin-binding peptide (Huang et al., US 2005/0050656) (TPFHSPENAPGS; Skin-binding peptide) [reference compound]”: in data set [1], the “binding to hair (in words)” value was “low hair-binding activity”. Moreover, the “binding to skin (in words)” value in data set [2] was “high skin-binding activity”.

As to “Skin 1(5-FAM): skin-binding control peptide Skin 1 with added C-terminal lysine derivatized with 5-FAM (TPFHSPENAPGSK(5‑FAM)) [reference compound]”, in data set [1], the “Hair A450 ± SEM” value is −0.001 ± 0.041. In data set [2], the “Skin A450 ± SEM” value is 0.328 ± 0.146.

As to “STLHKYKSQDPTPHH (Hair conditioner-resistant hair-binding peptide) [HCP.6]”, in data set [1], the “binding to hair (in words)” value is recorded as “bind to hair”. The “binding to skin (in words)” value in data set [2] was “not to skin”. Also, the “difference in hair-binding activity from a hair conditioner matrix compared to buffer” value in data set [3] was “no significant difference”. For the same substance, the “binding activity after shampoo wash compared to buffer washes” value in data set [4] is “almost total loss of binding activity”. Further, the “hair-binding activity after storage in the hair conditioner matrix” value in data set [5] was “no significant decrease”.

For the substance “HCP.1(5-FAM): HCP.1 with an added C-terminal lysine derivatized with fluorescent tag 5-carboxyfluorescein-aminohexyl amidite (THSTHNHGSPRHTNADAGNPK(5‑FAM))”, the “Hair A450 ± SEM” value in data set [1] was 0.392 ± 0.065. Moreover, the “Skin A450 ± SEM” value in data set [2] worked out at 0.090 ± 0.136. Moreover, in data set [3], the “Buffer A450 ± SEM” value worked out at 1.593 ± 0.060 and the “100% Conditioner A450 ± SEM” value is 1.581 ± 0.046.
